Test results as given in ChEMBL document CHEMBL5465560, “Selectivity Literature for EUbOPEN Chemogenomic Library” (2024).
Blank lines part the entries; values can stand above or below the compound they belong to.

Experiments:
[1] = biological target: Tyrosine-protein kinase receptor UFO (Homo sapiens) (UniProt P30530); assay: Selectivity interaction (Upstate Kinase Profiler service (Millipore)) EUB0000056c AXL; conditions: at 1 µM
Insulin receptor = Insulin receptor (Homo sapiens, UniProt P06213); assay: Selectivity interaction (ProQinase) EUB0000171b INSR; conditions: at 5 µM
[2] = biological target: Ribosomal protein S6 kinase alpha-5 (Homo sapiens) (UniProt O75582); assay: Selectivity interaction (KinomeScan (DiscoverX)) EUB0001079a RPS6KA5; conditions: at 1 µM
[3] = biological target: Sodium-dependent noradrenaline transporter (Homo sapiens, UniProt P23975); assay: Selectivity interaction (Norepinephrine Transporter assay, human recombinant ) EUB0000877a SLC6A2
[4] = biological target: Tyrosine-protein kinase Fes/Fps (Homo sapiens) (UniProt P07332); assay: Selectivity interaction (Millipore kinase profiler) EUB0000124b FES; conditions: at 10 µM
[5] = biological target: Serine/threonine-protein kinase 10 (Homo sapiens) (UniProt O94804); assay: Selectivity interaction (ActivX KiNativ screen (kinase selectivity in THP-1 cell lysates)) EUB0000639a STK10; assay type: subcellular; conditions: lysate, at 1 µM
[6] = Selectivity interaction (ActivX KiNativ screen (kinase selectivity in THP-1 cell lysates)) EUB0000639a STLK6; conditions: Selectivity number of off-targets 0; Selectivity number of targets 283; Source Knowledge https://pubmed.ncbi.nlm.nih.gov/28498658/; at 0.2 µM
[7] = biological target: Tyrosine-protein kinase JAK2 (Homo sapiens, UniProt O60674); assay: Selectivity interaction (KinomeScan (DiscoverX)) EUB0000607a JAK2; conditions: at 10 µM
[8] = biological target: T1, Ephrin type-A receptor 8 (Homo sapiens) (UniProt P29322); assay: Selectivity interaction (Ambit KINOMEscan and KiNATiv profiling in Jurkat cells) EUB0000090b EPHA8; assay type: cell-based; conditions: at 1 µM
T1 sequence (whole entry): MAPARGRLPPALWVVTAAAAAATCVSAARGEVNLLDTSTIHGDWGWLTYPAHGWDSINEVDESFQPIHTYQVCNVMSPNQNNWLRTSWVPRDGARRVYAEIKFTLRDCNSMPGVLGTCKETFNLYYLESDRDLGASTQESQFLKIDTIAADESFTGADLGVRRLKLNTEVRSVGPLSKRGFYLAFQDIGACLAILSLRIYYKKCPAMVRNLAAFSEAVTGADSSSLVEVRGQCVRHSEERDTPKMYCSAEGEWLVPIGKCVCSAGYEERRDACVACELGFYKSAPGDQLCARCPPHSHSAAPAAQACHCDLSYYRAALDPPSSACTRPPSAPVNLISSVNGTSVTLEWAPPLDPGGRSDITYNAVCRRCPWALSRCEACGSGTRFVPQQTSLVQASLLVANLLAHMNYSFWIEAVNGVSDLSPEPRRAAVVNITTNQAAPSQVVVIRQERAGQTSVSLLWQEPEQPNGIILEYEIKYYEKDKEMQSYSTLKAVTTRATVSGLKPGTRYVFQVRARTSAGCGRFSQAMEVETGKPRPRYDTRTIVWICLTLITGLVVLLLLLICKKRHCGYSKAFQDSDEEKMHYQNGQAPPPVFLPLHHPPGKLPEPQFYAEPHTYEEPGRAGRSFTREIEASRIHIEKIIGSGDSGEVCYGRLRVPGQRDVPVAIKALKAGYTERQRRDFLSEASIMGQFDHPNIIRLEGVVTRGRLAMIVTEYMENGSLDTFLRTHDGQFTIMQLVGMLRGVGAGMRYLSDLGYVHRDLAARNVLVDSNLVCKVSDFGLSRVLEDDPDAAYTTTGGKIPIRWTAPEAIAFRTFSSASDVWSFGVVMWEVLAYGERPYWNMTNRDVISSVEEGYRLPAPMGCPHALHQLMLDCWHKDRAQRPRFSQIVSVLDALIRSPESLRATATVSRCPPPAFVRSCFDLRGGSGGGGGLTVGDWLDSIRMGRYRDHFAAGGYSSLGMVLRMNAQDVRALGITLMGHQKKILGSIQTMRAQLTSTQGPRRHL

[9] = biological target: Serine/threonine-protein kinase N1 (Homo sapiens, UniProt Q16512); assay: Selectivity interaction (Ambit KINOMEscan and KiNATiv profiling in Jurkat cells) EUB0000090b PKN1; assay type: cell-based; conditions: at 1 µM
[10] = biological target: T2, Protein kinase C epsilon type (Homo sapiens) (UniProt Q02156); assay: Selectivity interaction (KinomeScan (DiscoverX)) EUB0001619a PRKCE; conditions: at 1 µM
T2 sequence (whole entry): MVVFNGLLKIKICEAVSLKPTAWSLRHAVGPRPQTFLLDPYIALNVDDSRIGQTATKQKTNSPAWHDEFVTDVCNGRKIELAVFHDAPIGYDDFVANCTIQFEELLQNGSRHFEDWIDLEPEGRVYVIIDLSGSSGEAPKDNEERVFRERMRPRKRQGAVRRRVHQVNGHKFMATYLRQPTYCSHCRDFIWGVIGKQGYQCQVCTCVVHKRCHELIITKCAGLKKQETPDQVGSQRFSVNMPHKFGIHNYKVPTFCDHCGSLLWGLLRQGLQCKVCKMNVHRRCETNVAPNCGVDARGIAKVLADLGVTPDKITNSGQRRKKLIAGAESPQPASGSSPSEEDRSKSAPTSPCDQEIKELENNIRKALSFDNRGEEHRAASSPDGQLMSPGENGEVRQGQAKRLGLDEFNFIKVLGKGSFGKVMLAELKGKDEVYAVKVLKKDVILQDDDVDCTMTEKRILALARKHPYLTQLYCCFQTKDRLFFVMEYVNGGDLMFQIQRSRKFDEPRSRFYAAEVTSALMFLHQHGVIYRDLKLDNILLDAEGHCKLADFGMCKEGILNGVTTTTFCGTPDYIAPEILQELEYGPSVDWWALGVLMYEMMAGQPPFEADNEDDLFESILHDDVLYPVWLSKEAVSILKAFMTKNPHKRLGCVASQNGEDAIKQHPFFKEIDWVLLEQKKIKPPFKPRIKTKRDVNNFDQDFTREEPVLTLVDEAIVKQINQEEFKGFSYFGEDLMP

[11] = biological target: Serine/threonine-protein kinase SIK3 (Homo sapiens) (UniProt Q9Y2K2); assay: Selectivity interaction (ActivX KiNativ screen (ex vivo kinase selectivity in human PBMCs)) EUB0001619a SIK3; assay type: cell-based; conditions: PBMC, at 1 µM
Serine/threonine-protein kinase SIK3 (Homo sapiens), sequence (Q9Y2K2 whole entry, looked up): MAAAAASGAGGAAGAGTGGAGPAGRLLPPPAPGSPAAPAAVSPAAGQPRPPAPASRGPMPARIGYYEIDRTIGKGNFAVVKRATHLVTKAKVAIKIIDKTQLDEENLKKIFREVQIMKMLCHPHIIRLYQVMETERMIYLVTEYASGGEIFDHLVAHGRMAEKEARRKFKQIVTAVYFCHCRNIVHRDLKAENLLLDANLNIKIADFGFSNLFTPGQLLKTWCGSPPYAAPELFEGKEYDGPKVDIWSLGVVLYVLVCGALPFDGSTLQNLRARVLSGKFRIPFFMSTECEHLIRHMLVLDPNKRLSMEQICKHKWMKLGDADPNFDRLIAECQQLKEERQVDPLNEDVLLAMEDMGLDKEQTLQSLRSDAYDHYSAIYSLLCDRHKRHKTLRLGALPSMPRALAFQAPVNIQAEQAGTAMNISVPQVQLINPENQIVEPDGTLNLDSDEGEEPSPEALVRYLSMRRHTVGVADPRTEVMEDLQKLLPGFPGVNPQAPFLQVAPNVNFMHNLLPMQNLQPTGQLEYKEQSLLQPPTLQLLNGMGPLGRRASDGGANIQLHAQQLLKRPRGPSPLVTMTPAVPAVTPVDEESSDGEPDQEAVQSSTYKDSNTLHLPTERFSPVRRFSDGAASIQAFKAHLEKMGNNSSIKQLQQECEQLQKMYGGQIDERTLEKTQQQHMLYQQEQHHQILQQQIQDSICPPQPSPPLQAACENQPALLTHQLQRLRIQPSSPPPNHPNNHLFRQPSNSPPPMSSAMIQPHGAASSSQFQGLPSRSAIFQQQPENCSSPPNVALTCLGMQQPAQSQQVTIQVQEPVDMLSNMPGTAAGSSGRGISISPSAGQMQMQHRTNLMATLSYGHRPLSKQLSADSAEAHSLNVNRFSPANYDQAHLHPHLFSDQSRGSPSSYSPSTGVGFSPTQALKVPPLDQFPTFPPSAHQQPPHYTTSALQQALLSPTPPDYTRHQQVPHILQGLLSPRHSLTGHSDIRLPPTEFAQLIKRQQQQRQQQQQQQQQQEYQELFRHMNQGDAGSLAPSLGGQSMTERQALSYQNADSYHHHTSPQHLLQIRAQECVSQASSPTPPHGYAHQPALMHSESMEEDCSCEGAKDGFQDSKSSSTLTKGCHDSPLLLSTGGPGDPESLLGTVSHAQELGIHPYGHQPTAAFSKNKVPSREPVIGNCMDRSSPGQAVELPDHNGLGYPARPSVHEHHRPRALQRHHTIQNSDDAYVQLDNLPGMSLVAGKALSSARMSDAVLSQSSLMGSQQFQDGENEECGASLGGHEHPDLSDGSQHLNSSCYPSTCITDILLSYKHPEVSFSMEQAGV

Tyrosine-protein kinase JAK2, sequence (O60674 whole entry): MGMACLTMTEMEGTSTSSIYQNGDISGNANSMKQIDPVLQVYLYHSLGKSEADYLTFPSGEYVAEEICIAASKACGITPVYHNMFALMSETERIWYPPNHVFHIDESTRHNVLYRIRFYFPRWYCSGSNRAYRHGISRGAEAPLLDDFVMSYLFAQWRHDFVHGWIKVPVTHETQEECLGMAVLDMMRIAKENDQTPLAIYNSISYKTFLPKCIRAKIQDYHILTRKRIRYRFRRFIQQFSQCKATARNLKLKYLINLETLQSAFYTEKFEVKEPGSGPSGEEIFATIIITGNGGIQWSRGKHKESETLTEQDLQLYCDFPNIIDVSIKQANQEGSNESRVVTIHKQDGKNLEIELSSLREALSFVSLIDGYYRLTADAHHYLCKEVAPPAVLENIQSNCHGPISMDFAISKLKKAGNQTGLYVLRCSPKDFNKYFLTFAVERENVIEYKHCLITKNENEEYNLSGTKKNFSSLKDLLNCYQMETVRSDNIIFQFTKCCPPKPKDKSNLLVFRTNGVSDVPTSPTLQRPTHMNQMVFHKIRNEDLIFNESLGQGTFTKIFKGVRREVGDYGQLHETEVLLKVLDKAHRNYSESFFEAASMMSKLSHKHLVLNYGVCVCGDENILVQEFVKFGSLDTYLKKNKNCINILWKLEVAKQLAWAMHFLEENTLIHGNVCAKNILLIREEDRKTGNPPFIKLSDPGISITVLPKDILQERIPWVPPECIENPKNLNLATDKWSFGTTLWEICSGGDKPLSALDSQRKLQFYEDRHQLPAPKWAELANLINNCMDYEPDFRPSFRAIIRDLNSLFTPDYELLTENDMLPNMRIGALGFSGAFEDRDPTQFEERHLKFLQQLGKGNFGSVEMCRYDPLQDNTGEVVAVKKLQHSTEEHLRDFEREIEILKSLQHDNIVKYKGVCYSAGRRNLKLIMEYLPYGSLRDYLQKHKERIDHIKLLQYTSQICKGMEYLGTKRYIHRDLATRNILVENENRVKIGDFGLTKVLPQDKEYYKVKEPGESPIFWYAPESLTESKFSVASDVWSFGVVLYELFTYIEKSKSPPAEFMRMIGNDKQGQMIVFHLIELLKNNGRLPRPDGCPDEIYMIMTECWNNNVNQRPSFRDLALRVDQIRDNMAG
Ribosomal protein S6 kinase alpha-5 (Homo sapiens), sequence (O75582 whole entry, looked up): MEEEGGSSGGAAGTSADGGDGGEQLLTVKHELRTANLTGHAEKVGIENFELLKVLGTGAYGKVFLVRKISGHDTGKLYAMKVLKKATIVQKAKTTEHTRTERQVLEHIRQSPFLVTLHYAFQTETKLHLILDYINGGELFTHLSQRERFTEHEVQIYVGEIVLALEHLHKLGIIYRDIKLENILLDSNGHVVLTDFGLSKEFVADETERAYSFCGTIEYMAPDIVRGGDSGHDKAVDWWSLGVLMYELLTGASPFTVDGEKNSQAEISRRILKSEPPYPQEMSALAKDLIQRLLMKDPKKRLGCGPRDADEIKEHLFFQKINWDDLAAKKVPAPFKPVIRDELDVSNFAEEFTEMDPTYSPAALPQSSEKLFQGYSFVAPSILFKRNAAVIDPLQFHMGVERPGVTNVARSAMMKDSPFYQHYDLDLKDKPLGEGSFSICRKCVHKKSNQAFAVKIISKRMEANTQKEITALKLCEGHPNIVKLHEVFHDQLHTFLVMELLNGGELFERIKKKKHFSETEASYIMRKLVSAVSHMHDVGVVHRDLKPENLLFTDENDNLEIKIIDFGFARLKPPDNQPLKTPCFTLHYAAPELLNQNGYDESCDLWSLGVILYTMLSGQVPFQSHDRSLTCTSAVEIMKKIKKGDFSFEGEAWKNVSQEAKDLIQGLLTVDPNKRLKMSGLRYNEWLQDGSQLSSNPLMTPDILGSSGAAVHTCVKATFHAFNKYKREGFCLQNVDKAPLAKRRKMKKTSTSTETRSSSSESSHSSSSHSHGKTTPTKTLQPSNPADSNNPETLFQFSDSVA
Serine/threonine-protein kinase N1, sequence (Q16512 2-942 limits assumed): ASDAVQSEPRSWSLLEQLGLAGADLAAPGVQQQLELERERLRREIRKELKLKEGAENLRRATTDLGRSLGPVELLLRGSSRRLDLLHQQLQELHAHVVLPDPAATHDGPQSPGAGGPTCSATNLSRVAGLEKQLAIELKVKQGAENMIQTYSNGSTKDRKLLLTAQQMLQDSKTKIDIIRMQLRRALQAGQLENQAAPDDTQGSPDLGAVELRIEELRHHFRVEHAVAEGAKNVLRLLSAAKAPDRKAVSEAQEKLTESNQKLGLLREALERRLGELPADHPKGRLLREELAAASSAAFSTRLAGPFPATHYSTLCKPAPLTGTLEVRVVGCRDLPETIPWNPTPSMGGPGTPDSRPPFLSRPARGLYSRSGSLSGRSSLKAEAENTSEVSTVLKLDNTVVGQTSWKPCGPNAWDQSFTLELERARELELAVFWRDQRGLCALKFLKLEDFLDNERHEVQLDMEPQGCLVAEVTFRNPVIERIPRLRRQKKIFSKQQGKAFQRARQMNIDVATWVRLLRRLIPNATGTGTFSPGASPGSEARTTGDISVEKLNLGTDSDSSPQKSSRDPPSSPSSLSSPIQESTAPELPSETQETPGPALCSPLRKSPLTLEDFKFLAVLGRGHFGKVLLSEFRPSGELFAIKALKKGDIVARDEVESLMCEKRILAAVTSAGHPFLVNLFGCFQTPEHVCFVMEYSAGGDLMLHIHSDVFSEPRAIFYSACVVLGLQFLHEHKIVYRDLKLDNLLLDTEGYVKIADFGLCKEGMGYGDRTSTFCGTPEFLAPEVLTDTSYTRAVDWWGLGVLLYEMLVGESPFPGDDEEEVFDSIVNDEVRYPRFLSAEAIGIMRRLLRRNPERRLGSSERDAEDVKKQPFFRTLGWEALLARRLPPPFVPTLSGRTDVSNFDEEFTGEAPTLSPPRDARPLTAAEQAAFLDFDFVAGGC
Tyrosine-protein kinase receptor UFO (Homo sapiens), sequence (P30530 whole entry): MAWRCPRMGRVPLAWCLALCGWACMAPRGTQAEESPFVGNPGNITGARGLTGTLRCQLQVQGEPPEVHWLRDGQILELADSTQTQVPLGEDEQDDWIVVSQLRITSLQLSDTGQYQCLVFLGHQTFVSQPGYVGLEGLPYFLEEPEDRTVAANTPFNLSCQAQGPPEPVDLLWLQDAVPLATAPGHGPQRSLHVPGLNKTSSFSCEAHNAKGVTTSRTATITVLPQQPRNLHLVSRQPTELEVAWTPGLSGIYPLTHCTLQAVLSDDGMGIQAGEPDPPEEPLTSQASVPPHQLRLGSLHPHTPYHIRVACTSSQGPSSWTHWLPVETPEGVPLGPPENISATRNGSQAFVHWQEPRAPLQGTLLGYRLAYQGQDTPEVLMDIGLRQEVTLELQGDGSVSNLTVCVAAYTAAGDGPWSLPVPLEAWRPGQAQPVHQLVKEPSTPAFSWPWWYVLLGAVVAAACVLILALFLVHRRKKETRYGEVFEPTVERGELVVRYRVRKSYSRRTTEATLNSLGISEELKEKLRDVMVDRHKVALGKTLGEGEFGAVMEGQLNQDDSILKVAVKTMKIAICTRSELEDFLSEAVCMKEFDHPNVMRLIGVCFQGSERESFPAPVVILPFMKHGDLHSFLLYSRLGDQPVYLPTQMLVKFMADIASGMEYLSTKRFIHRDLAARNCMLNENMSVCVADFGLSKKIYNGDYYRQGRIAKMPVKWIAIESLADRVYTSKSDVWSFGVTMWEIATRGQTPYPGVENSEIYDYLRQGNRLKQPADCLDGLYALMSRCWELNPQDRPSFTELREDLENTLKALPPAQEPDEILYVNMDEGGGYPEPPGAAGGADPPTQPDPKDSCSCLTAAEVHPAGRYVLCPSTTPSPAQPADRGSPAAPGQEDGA

SMILES: Nc1cnc(N2CCc3cc(S(=O)(=O)Nc4c(F)cc(Cl)cc4F)cc(N4CCCC4=O)c32)nc1 [TP-020n]
- % of control [2]: 95%

SMILES: CCC(=O)N1CC[C@H](Nc2ncnc3c2CN(c2cnc(OC)c(C(F)(F)F)c2)CC3)C1 [LENIOLISIB]
- IC50 [3]: > 30 µM

SMILES: CNC(=O)Nc1ccc(-c2nc(N3CC4CCC(C3)O4)c3cnn(C4CCC5(CC4)OCCO5)c3n2)cc1
- % of control [7]: 100%

SMILES: CN(C)C/C=C/C(=O)Nc1ccc(C(=O)N2CCCC(Nc3ncc(Cl)c(-c4c[nH]c5ccccc45)n3)C2)cc1 (configuration not stated)
- % of control [8]: 89%
- % of control [9]: 94%

SMILES: N#Cc1cccc(-c2c[nH]c3ncnc(N4CCOCC4)c23)c1
- % of control [10]: 12%
- % of inhibition [11]: 14%

Further lines, with some results ahead:

- % of inhibition [1]: 58%
SMILES: Cc1ccc(-c2ccc3c(ccc4sc5c(c43)NC[C@@H](C)NC5=O)n2)cn1

- % of control (Insulin receptor): 72%
SMILES: C=CC(=O)Nc1cccc(C(=O)Nc2ccc(Nc3cc(-c4[nH]c(SC)nc4C)ccn3)cc2)c1

- % of control [4]: 95%
SMILES: CC(=O)Nc1cccc(-n2c(=O)n(C3CC3)c(=O)c3c(Nc4ccc(I)cc4F)n(C)c(=O)c(C)c32)c1

- % of inhibition [5]: -16.6%
SMILES: CC[C@@H]1[C@H](F)C(=O)N[C@@H]1COc1nccc2cc(C(N)=O)c(OC)cc12 [ZIMLOVISERTIB]
- % of inhibition [6]: 7.4%
